Data published in patent US20150105252A1, “SUBSTITUTED PYRAZOLES AS HERBICIDES” (E I DU PONT DE NEMOURS AND COMPANY, priority 2013, published 2015).

Experiments:
barnyardgrass [1] = assay: Test A preemergence; assay type: in vivo, Echinochloa crus-galli; settings: Preemergence, 1000 g ai/ha; 0 to 100 scale, 0 no effect, 100 complete control
Procedure, shortened: (§1)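 Growth medium: loam soil blended with sand. Preemergence treatment used a directed soil spray right after planting; postemergence treatment targeted seedlings at one to two leaves (2–10 cm height). Response was judged by eye relative to untreated plants about 10 days later on a 0–100 control scale.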

velvetleaf [2] = assay: Test A preemergence; assay type: in vivo, Abutilon theophrasti; settings: Preemergence, 1000 g ai/ha; 0 to 100 scale, 0 no effect, 100 complete control
Procedure, shortened: as §1

foxtail, giant [3] = assay: Test A postemergence; assay type: in vivo, Setaria faberii; settings: Postemergence, 1000 g ai/ha; visual rating after approx. 10 days, 0 to 100 scale (0 no effect, 100 complete control)
Procedure, shortened: as §1

wheat [4] = assay: Test A postemergence; assay type: in vivo, Triticum aestivum; settings: Postemergence, 1000 g ai/ha; visual rating after approx. 10 days, 0 to 100 scale (0 no effect, 100 complete control)
Procedure, shortened: as §1

foxtail, giant [5] = assay: Test A preemergence; assay type: in vivo, Setaria faberii; settings: Preemergence, 1000 g ai/ha; 0 to 100 scale, 0 no effect, 100 complete control
Procedure, shortened: as §1

crabgrass, large [6] = assay: Test A postemergence; assay type: in vivo, Digitaria sanguinalis; settings: Postemergence, 1000 g ai/ha; visual rating after approx. 10 days, 0 to 100 scale (0 no effect, 100 complete control)
Procedure, shortened: as §1

crabgrass, large [7] = assay: Test A preemergence; assay type: in vivo, Digitaria sanguinalis; settings: Preemergence, 1000 g ai/ha; 0 to 100 scale, 0 no effect, 100 complete control
Procedure, shortened: as §1

wheat [8] = assay: Test A preemergence; assay type: in vivo, Triticum aestivum
Procedure, shortened: as §1

morningglory [9] = assay: Test A preemergence; assay type: in vivo, Ipomoea spp.; settings: Preemergence, 1000 g ai/ha; 0 to 100 scale, 0 no effect, 100 complete control
Procedure, shortened: as §1

morningglory [10] = assay: Test A postemergence; assay type: in vivo, Ipomoea spp.; settings: Postemergence, 1000 g ai/ha; visual rating after approx. 10 days, 0 to 100 scale (0 no effect, 100 complete control)
Procedure, shortened: as §1

corn [11] = assay: Test A postemergence; assay type: in vivo, Zea mays; settings: Postemergence, 1000 g ai/ha; visual rating after approx. 10 days, 0 to 100 scale (0 no effect, 100 complete control)
Procedure, shortened: as §1

barnyardgrass [12] = assay: Test A postemergence; assay type: in vivo, Echinochloa crus-galli; settings: Postemergence, 1000 g ai/ha; visual rating after approx. 10 days, 0 to 100 scale (0 no effect, 100 complete control)
Procedure, shortened: as §1

corn [13] = assay: Test A preemergence; assay type: in vivo, Zea mays; settings: Preemergence, 1000 g ai/ha; 0 to 100 scale, 0 no effect, 100 complete control
Procedure, shortened: as §1

pigweed [14] = assay: Test A postemergence; assay type: in vivo, Amaranthus retroflexus; settings: Postemergence, 1000 g ai/ha; visual rating after approx. 10 days, 0 to 100 scale (0 no effect, 100 complete control)
Procedure, shortened: as §1

velvetleaf [15] = assay: Test A postemergence; assay type: in vivo, Abutilon theophrasti; settings: Postemergence, 1000 g ai/ha; visual rating after approx. 10 days, 0 to 100 scale (0 no effect, 100 complete control)
Procedure, shortened: as §1

pigweed [16] = assay: Test A preemergence; assay type: in vivo, Amaranthus retroflexus; settings: Preemergence, 1000 g ai/ha; 0 to 100 scale, 0 no effect, 100 complete control
Procedure, shortened: as §1

[17] = Preemergence, 1000 g ai/ha, 0 to 100 scale, 0 no effect, 100 complete control
[18] = preemergence, 500 g ai/ha, visual injury after approx. 10 days, 0 to 100 scale (0 no effect, 100 complete control)

SMILES | Barnyardgrass plant response rating (barnyardgrass [1]) | Velvetleaf plant response rating (velvetleaf [2]) | Foxtail, Giant plant response rating (foxtail, giant [3]) | Wheat plant response rating (wheat [4]) | Foxtail, Giant plant response rating (foxtail, giant [5]) | Crabgrass, Large plant response rating (crabgrass, large [6]) | Crabgrass, Large plant response rating (crabgrass, large [7]) | Wheat plant response rating (wheat [8]; [17]) | Wheat plant response rating (wheat [8]; [18]) | Morningglory plant response rating (morningglory [9]) | Morningglory plant response rating (morningglory [10]) | Corn plant response rating (corn [11]) | Barnyardgrass plant response rating (barnyardgrass [12]) | Corn plant response rating (corn [13]) | Pigweed plant response rating (pigweed [14]) | Velvetleaf plant response rating (velvetleaf [15]) | Pigweed plant response rating (pigweed [16])
CCc1cc(C(=O)NC(C)(C)C)nn1Cc1cccc(OC(F)(F)F)c1 [Compound 59] | 0 | 0 | 20 | 0 | 10 | 10 | 10 | 0 | 10 | 0 | 50 | 10 | 10 | 0 | 50 | 10 | 0
CCc1cc(C(=O)NCC(C)C)nn1Cc1cccc(OC(F)(F)F)c1 [Compound 60] | 30 | 0 | 40 | 20 | 100 | 30 | 90 | 0 | 0 | 20 | 100 | 30 | 20 | 0 | 60 | 60 | 90
CCc1cc(C(=O)N(C)OC)nn1Cc1cccc(C(F)(F)F)c1 [Compound 66] | 0 | 20 | 40 | 10 | 100 | 20 | 50 | 0 | 0 | 30 | 50 | 30 | 20 | 0 | 50 | 40 | 50
